# Assay results published in patent publication US4439426A, “Semisynthetic macrolidic antibiotics, intermediate compounds for their preparation and related pharmaceutical compositions containing them” (priority 1981, dated 1984).
# Values joined by “and” are separate entries in the source; they are usually repeats but may differ in a detail not shown here. Identical values can stand only once.
# What was measured:
# [1] = test system: Clostridium perfrigens ATCC 3624 LRP 206; experiment: microbe, parasite or virus in culture; format: cell-based; details: ATCC3624, read-out: Minimum inhibiting concentration
# Summary of the method: (§1)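 Against a mixed bacterial collection (aerobic, anaerobic; Gram-positive, Gram-negative), inhibitory power is quantified by the lowest concentration still halting growth.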
# [2] = test system: Salmonella typhy LRP 8; experiment: microbe, parasite or virus in culture; format: cell-based; details: LRP8, solid medium, read-out: Minimum inhibiting concentration
# Summary of the method: as §1
# [3] = Serum concentrations in the rat after oral administration; format: in vivo; details: 100 mg/kg per os
# Experimental: administration of 100 mg/kg per os. The values, at the
# several sampling times, correspond to mcg of product per ml of serum*.
# [4] = test system: Staphylococcus aureus ATCC 6538 P LRP 39; experiment: Bacteriostatic power in liquid medium (MIC); format: cell-based; details: Staphylococcus aureus, ATCC6538, read-out: Minimum inhibiting concentration
# Summary of the method: as §1
# [5] = test system: Streptococcus pyogenes ATCC 8668 LRP 34; experiment: Bacteriostatic power in liquid medium (MIC); format: cell-based; details: Streptococcus pyogenes, ATCC8668, read-out: Minimum inhibiting concentration
# Summary of the method: as §1
# [6] = test system: Streptococcus faecalis subs. zymogenes ATCC 12958 LRP 61; experiment: Bacteriostatic power in liquid medium (MIC); format: cell-based; details: Enterococcus faecalis, ATCC12958, read-out: Minimum inhibiting concentration
# Summary of the method: as §1
# [7] = test system: Streptococcus pneumoniae ATCC 6303 LRP 35; experiment: Bacteriostatic power in liquid medium (MIC); format: cell-based; details: Streptococcus pneumoniae, ATCC6303, read-out: Minimum inhibiting concentration
# Summary of the method: as §1
# [8] = test system: Corynebacterium diphteriae LRP 24; experiment: Bacteriostatic power in liquid medium (MIC); format: cell-based; details: Corynebacterium, LRP24, read-out: Minimum inhibiting concentration
# Summary of the method: as §1
# [9] = test system: Streptococcus pyogenes ATCC 8668 LRP 34; experiment: Bacteriostatic power in solid medium (MIC); format: cell-based; details: Streptococcus pyogenes, ATCC8668, read-out: Minimum inhibiting concentration
# Summary of the method: as §1
# [10] = test system: Bacteroides fragilis ATCC 23745 LRP 205; experiment: Bacteriostatic power in solid medium (MIC); format: cell-based; details: Bacteroides fragilis, ATCC23745, read-out: Minimum inhibiting concentration
# Summary of the method: as §1
# [11] = test system: Micrococcus luteus ATCC 15957 LRP 193; experiment: Bacteriostatic power in solid medium (MIC); format: cell-based; details: Micrococcus luteus, ATCC15957, read-out: Minimum inhibiting concentration
# Summary of the method: as §1
# [12] = test system: Streptococcus pneumoniae ATCC 6303 LRP 53; experiment: Bacteriostatic power in solid medium (MIC); format: cell-based; details: Streptococcus pneumoniae, ATCC6303, read-out: Minimum inhibiting concentration
# Summary of the method: as §1
# [13] = test system: Streptococcus pneumoniae ATCC 6303 LRP 52; experiment: Bacteriostatic power in solid medium (MIC); format: cell-based; details: Streptococcus pneumoniae, ATCC6303, read-out: Minimum inhibiting concentration
# Summary of the method: as §1
# [14] = test system: Streptococcus faecalis subsp. zymogenes ATCC 12958 LRP 61; experiment: Bacteriostatic power in solid medium (MIC); format: cell-based; details: Enterococcus faecalis, ATCC12958, read-out: Minimum inhibiting concentration
# Summary of the method: as §1
# [15] = test system: Streptococcus pneumoniae ATCC 6303 LRP 35; experiment: Bacteriostatic power in solid medium (MIC); format: cell-based; details: Streptococcus pneumoniae, ATCC6303, read-out: Minimum inhibiting concentration
# Summary of the method: as §1
# [16] = test system: Streptococcus pyogenes ATCC 8668 LRP 197; experiment: Bacteriostatic power in solid medium (MIC); format: cell-based; details: Streptococcus pyogenes, ATCC8668, read-out: Minimum inhibiting concentration
# Summary of the method: as §1
# [17] = test system: Corynebacterium diphteriae LRP 24; experiment: Bacteriostatic power in solid medium (MIC); format: cell-based; details: Corynebacterium, LRP24, read-out: Minimum inhibiting concentration
# Summary of the method: as §1
# [18] = test system: Micrococcus luteus ATCC 9341 LRP 6; experiment: Bacteriostatic power in solid medium (MIC); format: cell-based; details: Micrococcus luteus, ATCC9341, read-out: Minimum inhibiting concentration
# Summary of the method: as §1
# [19] = test system: Staphylococcus aureus ATCC 6538P LRP 39; experiment: Bacteriostatic power in solid medium (MIC); format: cell-based; details: Staphylococcus aureus, ATCC6538P, read-out: Minimum inhibiting concentration
# Summary of the method: as §1
# [20] = test system: Streptococcus faecalis LRP 7; experiment: Bacteriostatic power in solid medium (MIC); format: cell-based; details: Enterococcus faecalis, LRP7, read-out: Minimum inhibiting concentration
# Summary of the method: as §1
# [21] = test system: Staphylococcus aureus ATCC 14154 LRP 78; experiment: Bacteriostatic power in solid medium (MIC); format: cell-based; details: Staphylococcus aureus, ATCC14154, read-out: Minimum inhibiting concentration
# Summary of the method: as §1
# [22] = test system: Proteus vulgaris ATCC 6380 LRP 13; experiment: Bacteriostatic power in solid medium (MIC); format: cell-based; details: Proteus vulgaris, ATCC6380, read-out: Minimum inhibiting concentration
# Summary of the method: as §1
# [23] = test system: Pseudomonas aeruginosa LRP 9; experiment: Bacteriostatic power in solid medium (MIC); format: cell-based; details: Pseudomonas aeruginosa, LRP9, read-out: Minimum inhibiting concentration
# Summary of the method: as §1
# [24] = test system: Bacillus subtilis LRP 25; experiment: Bacteriostatic power in solid medium (MIC); format: cell-based; details: Bacillus subtilis, LRP25, read-out: Minimum inhibiting concentration
# Summary of the method: as §1
# [25] = test system: Neisseria gonorrhoeae ATCC 19424 LRP 214; experiment: Bacteriostatic power in solid medium (MIC); format: cell-based; details: Neisseria gonorrhoeae, ATCC19424, read-out: Minimum inhibiting concentration
# Summary of the method: as §1
# [26] = test system: Haemophilus influenzae ATCC 19418 LRP 213; experiment: Bacteriostatic power in solid medium (MIC); format: cell-based; details: Haemophilus influenzae, ATCC19418, read-out: Minimum inhibiting concentration
# Summary of the method: as §1
# [27] = test system: Klelsiella pneumoniae LRP 54; experiment: Bacteriostatic power in solid medium (MIC); format: cell-based; details: read-out: Minimum inhibiting concentration
# Summary of the method: as §1
# [28] = test system: Escherichia coli LRP 50; experiment: Bacteriostatic power in solid medium (MIC); format: cell-based; details: Escherichia coli, LRP50, read-out: Minimum inhibiting concentration
# Summary of the method: as §1
# [29] = test system: Shigella sonnei LRP 5; experiment: Bacteriostatic power in solid medium (MIC); format: cell-based; details: LRP5, read-out: Minimum inhibiting concentration
# Summary of the method: as §1
# [30] = test system: Acholeplasma laidlawii ATCC 23206 LRP 204; experiment: Bacteriostatic power in solid medium (MIC); format: cell-based; details: Acholeplasma laidlawii, ATCC23206, read-out: Minimum inhibiting concentration
# Summary of the method: as §1
# [31] = test system: Staphylococcus aureus ATCC 6538P LRP 14; experiment: Bacteriostatic power in solid medium (MIC); format: cell-based; details: Staphylococcus aureus, ATCC6538P, read-out: Minimum inhibiting concentration
# Summary of the method: as §1
# [32] = test system: Mycoplasma hominis I ATCC 14027 LRP 211; experiment: Bacteriostatic power in solid medium (MIC); format: cell-based; details: Metamycoplasma hominis, ATCC14027, read-out: Minimum inhibiting concentration
# Summary of the method: as §1
# [33] = test system: Fusobacteriumnecrophroum ATCC 27852 LRP 210; experiment: Bacteriostatic power in solid medium (MIC); format: cell-based; details: read-out: Minimum inhibiting concentration
# Summary of the method: as §1
smiles,measurement,setting,value
"CC[C@H]1OC(=O)[C@H](C)[C@@H](O[C@H]2C[C@@](C)(OC)[C@@H](O)[C@H](C)O2)[C@H](C)[C@@H](O[C@@H]2O[C@H](C)C[C@H](N(C)C)[C@H]2O)[C@](C)(O)C[C@](C)(F)C(=O)[C@H](C)[C@@H](O)[C@]1(C)O [P-80206, (8S)-8-fluoroerythromycin A]",MIC,[1],0.78 µg/mL
same,MIC,[2],12.5 µg/mL
same,"Serum concentration, individual rat","[3]; 0.5 hours, 30 min",0.078 mcg of product per ml of serum and 0.198 mcg of product per ml of serum and 0.630 mcg of product per ml of serum and 0.487 mcg of product per ml of serum and 1.105 mcg of product per ml of serum and 1.333 mcg of product per ml of serum
same,"Serum concentration, individual rat","[3]; 1 hour, 60 min",8.505 mcg of product per ml of serum and 0.880 mcg of product per ml of serum and 1.273 mcg of product per ml of serum and 1.251 mcg of product per ml of serum and 1.714 mcg of product per ml of serum and 0.531 mcg of product per ml of serum
same,"Serum concentration, individual rat","[3]; 2 hours, 120 min",3.712 mcg of product per ml of serum and 6.516 mcg of product per ml of serum and 3.510 mcg of product per ml of serum and 6.907 mcg of product per ml of serum and 6.601 mcg of product per ml of serum and 7.195 mcg of product per ml of serum
same,"Serum concentration, individual rat","[3]; 4 hours, 240 min",1.792 mcg of product per ml of serum and 2.134 mcg of product per ml of serum and 1.270 mcg of product per ml of serum and 2.817 mcg of product per ml of serum and 2.362 mcg of product per ml of serum and 2.115 mcg of product per ml of serum
same,"Serum concentration, individual rat","[3]; 6 hours, 360 min",0.867 mcg of product per ml of serum and 0.393 mcg of product per ml of serum and 1.192 mcg of product per ml of serum and 1.792 mcg of product per ml of serum and 1.620 mcg of product per ml of serum and 1.147 mcg of product per ml of serum
same,concentration at 0.5 h,"[3]; rat, in vivo, po, 100 mg/kg, 0.5 hours, read-out: Serum concentration, average",638 ng/mL
same,concentration at 1 h,"[3]; rat, in vivo, po, 100 mg/kg, 1 hour, read-out: Serum concentration, average",2360 ng/mL
same,concentration at 2 h,"[3]; rat, in vivo, po, 100 mg/kg, 2 hours",5740 ng/mL
same,concentration at 4 h,"[3]; rat, in vivo, po, 100 mg/kg, 4 hours, read-out: Serum concentration, average",2080 ng/mL
same,concentration at 6 h,"[3]; rat, in vivo, po, 100 mg/kg, 6 hours, read-out: Serum concentration, average",1170 ng/mL
same,MIC,[4],0.195 µg/mL
same,MIC,[5],0.097 µg/mL
same,MIC,[6],0.39 µg/mL
same,MIC,[7],0.049 µg/mL
same,MIC,[8],0.012 µg/mL
same,MIC,[9],0.012 µg/mL
same,MIC,[10],0.195 µg/mL
same,MIC,[11],25 µg/mL
same,MIC,[12],0.024 µg/mL
same,MIC,[13],0.024 µg/mL
same,MIC,[14],0.195 µg/mL
same,MIC,[15],0.024 µg/mL
same,MIC,[16],0.012 µg/mL
same,MIC,[17],0.012 µg/mL
same,MIC,[18],6 ng/mL
same,MIC,[19],0.097 µg/mL
same,MIC,[20],0.195 µg/mL
same,MIC,[21],25 µg/mL
same,MIC,[22],25 µg/mL
same,MIC,[23],25 µg/mL
same,MIC,[24],0.049 µg/mL
same,MIC,[25],0.049 µg/mL
same,MIC,[26],3.12 µg/mL
same,MIC,[27],12.5 µg/mL
same,MIC,[28],12.5 µg/mL
same,MIC,[29],25 µg/mL
same,MIC,[30],0.097 µg/mL
same,MIC,[31],0.097 µg/mL
same,MIC,[32],25 µg/mL
same,MIC,[33],1.56 µg/mL
